Experiment [1] deals with wheat seeds homozygous for one single preferred EPSPS mutation (T173I B genome, T173I D genome or P177S A genome). Nature of the experiment: Growth chamber germination on MS medium containing glyphosate, shoot and root length. In kind it is in vivo, Triticum aestivum. The conditions noted are these: 0.1x MS medium, 0.15 mM glyphosate, 10-14 days of development. An excerpt:
(§1) Plants homozygous for the single preferred mutations (the T173I mutation in the B genome, the T173I mutation in the D genome and the P177S mutation in the A genome) were identified in the M3 seeds. Wild type siblings were also identified and used as controls. Plants that were homozygous for the T173I mutation in the D genome were crossed to plants that were homozygous for the P177S mutation in the A genome to generate double mutant plants.
(§2) Growth Chamber Studies: Seeds from plants that were homozygous for one of the single preferred mutations and seeds from their wild type sibling control plants were surface sterilized, placed on moist germination paper overnight, and then grown in glass tubes with 0.1× Murashige & Skoog (MS) medium containing 0 or 0.15 mM glyphosate. Germination was performed in a growth chamber under a light condition of 16 hours of light/8 hours of dark of 80 microEinsteins. At 10-14 days of development, shoot and root lengths were measured.
(§3) Seeds from plants that were homozygous for the double preferred mutations (both T173 I and P177S) were compared to seeds that were homozygous for each of the single preferred mutation for their ability to survive on MS media containing glyphosate. Seeds from their wild type sibling plants were used as […]. Seeds were germinated as described above.

Experiment [2] concerns wild type sibling control seeds (wheat cultivar Express). The description is as above. It is filed as in vivo, Triticum aestivum. The conditions noted are these: 0.1x MS medium, 0.15 mM glyphosate, 10-14 days of development.
From the text: as §1, §2, §3

The test system of experiment [3] is wheat seeds homozygous for the double preferred EPSPS mutations (T173I D genome and P177S A genome). The experiment is described as above. In kind it is in vivo, Triticum aestivum. The conditions noted are these: MS media containing glyphosate, double mutation seeds compared with single mutation seeds.
From the text: as §1, §2, §3

Experiment [4] deals with maize EPSPS (threonine to isoleucine). The conditions noted are these: U.S. Pat. No. 6,566,587; cited from earlier work.
In the next experiment the target is E. coli EPSPS T97I (Escherichia coli, UniProt P0A6D3, T97I). The conditions noted are these: Funke et al. 2009; cited from earlier work.

The source of these data is patent US11324178B2, “Wheat having resistance to glyphosate due to alterations in 5-enol- pyruvylshikimate-3 phosphate synthase” (priority 2015, dated 2022).

“Also recorded” adds a separate entry of the source.

Sequence of E. coli EPSPS T97I (P0A6D3 whole entry T97I): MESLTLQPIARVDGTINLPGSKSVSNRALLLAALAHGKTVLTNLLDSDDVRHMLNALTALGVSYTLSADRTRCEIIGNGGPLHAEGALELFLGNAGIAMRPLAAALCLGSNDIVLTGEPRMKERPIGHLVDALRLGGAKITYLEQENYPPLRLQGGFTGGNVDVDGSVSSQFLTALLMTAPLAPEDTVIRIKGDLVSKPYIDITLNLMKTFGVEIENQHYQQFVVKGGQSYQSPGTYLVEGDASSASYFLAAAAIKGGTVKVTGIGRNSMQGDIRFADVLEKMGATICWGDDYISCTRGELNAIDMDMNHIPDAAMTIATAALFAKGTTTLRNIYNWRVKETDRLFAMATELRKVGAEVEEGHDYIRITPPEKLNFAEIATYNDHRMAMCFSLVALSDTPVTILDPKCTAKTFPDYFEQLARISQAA

In the case of `O=C(O)CNCP(=O)(O)O` [glyphosate], the “growth (shoot and root length) of seeds on medium containing glyphosate” value in experiment [1] was “the majority of seeds with mutations grew well; also recorded: resistant to glyphosate and grew well”; in experiment [2], “for the most part failed to grow”; in experiment [3], “more resistant to glyphosate than seeds that were homozygous for each of the single preferred mutations”. In addition, the “inhibition of mutated enzyme by glyphosate” value in experiment [4] is given as “reduced inhibition by glyphosate”. On E. coli EPSPS T97I, the “sensitivity of mutated enzyme to glyphosate” value is “leads to sensitivity to glyphosate”.
